Assays:
Assay type in all cases: functional
Aspergillus niger = assay: Antimicrobial activity against Aspergillus niger ATCC 9142 after 24 hr by broth dilution method; settings: ATCC 9142, 24 h
Pseudomonas aeruginosa = assay: Antimicrobial activity against Pseudomonas aeruginosa ATCC 10145 after 24 hr by broth dilution method; settings: ATCC 10145, 24 h
Aspergillus flavus = assay: Antimicrobial activity against Aspergillus flavus ATCC 15517 after 24 hr by broth dilution method; settings: ATCC 15517, 24 h
Bacillus cereus = assay: Antimicrobial activity against Bacillus cereus ATCC 11778 after 24 hr by broth dilution method; settings: ATCC 11778, 24 h
Proteus mirabilis = assay: Antimicrobial activity against Proteus mirabilis ATCC 49565 after 24 hr by broth dilution method; settings: ATCC 49565, 24 h
Staphylococcus hominis = assay: Antimicrobial activity against Staphylococcus hominis ATCC 27844 after 24 hr by broth dilution method; settings: ATCC 27844, 24 h
Fusarium solani = assay: Antimicrobial activity against Fusarium solani ATCC 38136 after 24 hr by broth dilution method; settings: ATCC 38136, 24 h
Aspergillus awamori = assay: Antimicrobial activity against Aspergillus awamori ATCC 22342 after 24 hr by broth dilution method; settings: ATCC 22342, 24 h
Microsporum canis = assay: Antimicrobial activity against Arthroderma otae ATCC 11622 after 24 hr by broth dilution method; settings: ATCC 11622, 24 h
Candida albicans = assay: Antimicrobial activity against Candida albicans ATCC 10231 after 24 hr by broth dilution method; settings: ATCC 10231, 24 h
Micrococcus luteus = assay: Antimicrobial activity against Micrococcus luteus ATCC 4698 after 24 hr by broth dilution method; settings: ATCC 4698, 24 h
Alternaria alternata = assay: Antimicrobial activity against Alternaria alternata ATCC 66868 after 24 hr by broth dilution method; settings: ATCC 66868, 24 h
Trichoderma viride = assay: Antimicrobial activity against Hypocrea rufa ATCC 52440 after 24 hr by broth dilution method; settings: ATCC 52440, 24 h
[1] = system: Staphylococcus epidermidis; assay: Antimicrobial activity against Staphylococcus epidermidis ATCC 12228 after 24 hr by broth dilution method; settings: ATCC 12228, 24 h
Proteus vulgaris = assay: Antimicrobial activity against Proteus vulgaris ATCC 13315 after 24 hr by broth dilution method; settings: ATCC 13315, 24 h
Bacillus pumilus = assay: Antimicrobial activity against Bacillus pumilus ATCC 14884 after 24 hr by broth dilution method; settings: ATCC 14884, 24 h
Salmonella typhi = assay: Antimicrobial activity against Salmonella enterica subsp. enterica serovar Typhi ATCC 19430 after 24 hr by broth dilution method; settings: ATCC 19430, 24 h
Bacillus spizizenii = assay: Antimicrobial activity against Bacillus subtilis subsp. spizizenii ATCC 6633 after 24 hr by broth dilution method; settings: ATCC 6633, 24 h
Escherichia coli = assay: Antimicrobial activity against Escherichia coli ATCC 25922 after 24 hr by broth dilution method; settings: ATCC 25922, 24 h
Staphylococcus aureus = assay: Antimicrobial activity against Staphylococcus aureus ATCC 25923 after 24 hr by broth dilution method; settings: ATCC 25923, 24 h
Rhizoctonia solani = assay: Antimicrobial activity against Rhizoctonia solani ATCC 76131 after 24 hr by broth dilution method; settings: ATCC 76131, 24 h
Aspergillus fumigatus = assay: Antimicrobial activity against Aspergillus fumigatus after 24 hr by broth dilution method
Trichophyton longifusum = assay: Antimicrobial activity against Trichophyton longifusum ATCC 22397 after 24 hr by broth dilution method; settings: ATCC 22397, 24 h
Klebsiella pneumoniae = assay: Antimicrobial activity against Klebsiella pneumoniae ATCC 13883 after 24 hr by broth dilution method; settings: ATCC 13883, 24 h

Measured: MIC

COc1cccc(C2SCC(=O)N2/N=C2\C(=O)Nc3ccc(Cl)cc32)c1 (configuration not stated)
37.5 µg/mL: Aspergillus niger | Proteus mirabilis | Staphylococcus hominis | Aspergillus awamori | Proteus vulgaris | Staphylococcus aureus | Aspergillus fumigatus | Trichophyton longifusum | Klebsiella pneumoniae
18.8 µg/mL: Aspergillus flavus | Fusarium solani | Microsporum canis | Candida albicans | Alternaria alternata | Trichoderma viride | Rhizoctonia solani
75 µg/mL: Pseudomonas aeruginosa | Bacillus cereus | Micrococcus luteus | [1] | Bacillus pumilus | Salmonella typhi | Bacillus spizizenii | Escherichia coli

O=C1Nc2ccc(Cl)cc2/C1=N/N1C(=O)CSC1c1ccc([N+](=O)[O-])cc1 (configuration not stated)
18.8 µg/mL: Bacillus cereus | Proteus mirabilis | [1] | Bacillus pumilus | Salmonella typhi | Escherichia coli
9.37 µg/mL: Pseudomonas aeruginosa | Staphylococcus hominis | Fusarium solani | Aspergillus awamori | Candida albicans | Micrococcus luteus | Trichoderma viride | Staphylococcus aureus | Rhizoctonia solani | Klebsiella pneumoniae
37.5 µg/mL: Proteus vulgaris | Bacillus spizizenii
4.68 µg/mL: Aspergillus niger | Aspergillus flavus | Microsporum canis | Alternaria alternata | Aspergillus fumigatus | Trichophyton longifusum

COc1ccc(C2SCC(=O)N2/N=C2\C(=O)Nc3ccc(Cl)cc32)cc1 (configuration not stated)
9.37 µg/mL: Aspergillus flavus | Proteus mirabilis | Microsporum canis | Alternaria alternata | [1] | Salmonella typhi | Bacillus spizizenii | Rhizoctonia solani | Klebsiella pneumoniae
4.68 µg/mL: Aspergillus niger | Fusarium solani | Aspergillus awamori | Candida albicans | Trichoderma viride | Aspergillus fumigatus | Trichophyton longifusum
37.5 µg/mL: Proteus vulgaris
18.8 µg/mL: Pseudomonas aeruginosa | Bacillus cereus | Staphylococcus hominis | Micrococcus luteus | Bacillus pumilus | Escherichia coli | Staphylococcus aureus
